# Laboratory results as given in patent US9643985B2, “PCL compounds, compositions, and methods of use thereof” (The Board Of Trustees Of The University Of Illinois, priority 2013, dated 2017).
# Where two headings read alike, the source gives them in different places.
# Columns and labels:
# [1] = Yield of D-Luciferin (A385) after treatment with H2O2
# From the text: (§1) The environment inside most cellular compartments is “reducing”—a status heavily dependent on the multiple antioxidant systems that rapidly detoxify oxidants in cells such as thioredoxins and glutathione/glutathione reductase redox systems and catalase. A viable biosensor for an oxidant inside of cells and tissue should detect its target in the presence of these and other ubiquitous milieu components.
# (§2) Data were normalized to bioluminescence obtained from an identical treatment of authentic D-Luciferin (5 μM). […] In all cases, spectral contributions from oxidants were subtracted via a parallel blank experiment containing no PCL-1.
# [2] = Yield of D-Luciferin (A385) after treatment with peroxynitrite (bolus or SIN-1 derived); details: for Maximum Yield Luciferin(%): 5 μM PCL-1 in TBS, pH 8.5, 37° C., 90 minutes, A385
# From the text: Where applicable, spectral contributions from oxidants were subtracted via a parallel blank experiment containing no PCL-1.
# as §1, §2
# [3] = Rate constant of reaction with H2O2; details: 100 mM sodium phosphate, pH 7.4, 37° C. (Table 3)
# [4] = Rate constant of reaction with peroxynitrite, stopped-flow spectroscopy; details: 100 mM sodium phosphate, pH 7.4, 37° C. (Table 3)
# [5] = tested on: mouse bone marrow-derived macrophages (BMDM); experiment: Detection of iNOS-derived peroxynitrite in LPS-stimulated macrophages; format: cell-based
# Description: Bone marrow derived macrophages were prepared using 10% L929 cell (ATCC) supernatant in RPMI medium (Cellgro) made complete with 10% FBS, penicillin, streptomycin, and glutamine (Gibco). Cells were cultured 4-6 days prior to plating for experiments in opaque, white microtiter plates (Falcon) for analysis on a Wallac Victor2 luminometer (PerkinElmer).
# In order to validate the utility of PCL-1 to detect peroxynitrite in cells, mouse bone marrow-derived macrophages (BMDM) were stimulated with 50 ng/mL bacterial LPS (lipopolysaccharide) for 22 hours, 5 μM PCL-1 was added for an additional 2 hours, then D-Luciferin generated was quantified over the course of 2 hours by addition of […] recombinant luciferase, according to Example 1.
# [6] = tested on: C57BL/6 mice irradiated; experiment: Irradiated mouse model, fecal PCL-1/luciferin marker by LC-MS/MS; format: in vivo
# Description: (§3) C57BL/6 mice were irradiated at a high lethal dose of 13Gy or at a LD70/30 of 8.1Gy in independent experiments using a Cs^137 source. PCL-1 was administered via oral gavage at 40 or 60 μM/animal, 0.2 mL volume per animal. Fecal samples were collected […] from the irradiated and non-irradiated mice at different time points (pre-dose, 4, 6 and 8 hr post-dose) prior to irradiation and also on days 1, 5 and 7 post-irradiation from all animals. PCL-1 and cleaved PCL-1 (luciferin) levels were measured in the feces using LC-MS/MS method.
# [7] = Safety of PCL-1 in mice, oral gavage; format: in vivo; details: 40 to 250 μM per animal via oral gavage
# [8] = Maximum fecal concentrations after oral administration of PCL-1; format: in vivo, mice; details: up to a 6.25 fold increase in dose
# Description: as §3
# Additionally with up to a 6.25 fold increase in dose a directly proportional fold increase in marker detected was not observed.
# [9] = Reactivity of PCL-1 towards other oxidants
# [10] = rate constant of the competing milieu component with peroxynitrite; cited from earlier work
# [11] = Total bioluminescence after minimal SIN-1 or H2O2 (FIG. 1); details: 60 minutes at 37° C.
# Description: Recombinant luciferase was added to the reaction mixture and bioluminescence was detected at 612 nm for 60 minutes. D-Luciferin (5 μM) was used as a determinant of maximum yield.
compound,measurement,setting,value
O=C(O)[C@H]1CSC(c2nc3ccc(OCc4ccc(B(O)O)cc4)cc3s2)=N1 [PCL-1],Maximum Yield Luciferin(%),"[1]; H2O2 (100 μM) added to 5 μM PCL-1 in TBS, pH 8.5, 37° C., 90 minutes, A385 normalized to authentic D-luciferin",97%
same,yield luciferin,"[1]; H2O2 as oxidant, with added BSA",7.38±1.39%
same,H2O2-mediated conversion to luciferin,"[1]; in the presence of GSH, albumin or catalase",negligible
same,conversion to luciferin by H2O2,"[1]; in vitro, in the absence of GSH, albumin, or catalase",quantitatively converted to luciferin
same,D-luciferin obtained,"[2]; SIN-1, in the presence of BSA",45.49%
same,"effect of GSH, albumin or catalase on peroxynitrite reactivity",[2]; at the tested concentrations,≤ 10%
same,Maximum Yield Luciferin(%),[2]; peroxynitrite bolus (10 μM),95%
same,Maximum Yield Luciferin(%),[2]; peroxynitrite from SIN-1 (100 μM),96%
same,yield of D-Luciferin,"[2]; peroxynitrite, in the presence of 66.5 mg/mL BSA (1.0 mM)",87.5±7.48%
same,kH2O2,[3],1.2 (±0.3) M^−1s^−1
same,kONOO−,[4],9.8 (±0.1) × 10^5 M^−1s^−1
same,D-Luciferin signal,"[5]; BMDMs from iNOS^−/− animals, LPS",no signal above baseline
same,D-Luciferin production over the baseline value,"[5]; wild-type macrophages, LPS 50 ng/mL, 5 μM PCL-1",nearly two-fold increase
same,increase in PCL-1 and % cleaved PCL-1 levels in the feces,"[6]; 8.1Gy irradiation, until day 7",two-fold or more increase
same,increase in the level of the marker in fecal samples vs control,"[6]; 13Gy, days 5 to 7, PCL-1 oral gavage",about 3 fold
same,signs of toxicity,[7],no signs of toxicity were observed
same,dose dependence of fecal detection,[8],not dose dependent
same,"sensitivity towards NO, superoxide radical anion, HOCl, and singlet oxygen",[9],insensitive
bovine serum albumin: milieu component competing for oxidants,kONOO−,[10],8310 M⁻¹ s⁻¹
"O=C(O)[C@H]1CSC(c2nc3ccc(OCc4ccc(B(O)O)c(F)c4)cc3s2)=N1 [PCL-F, (S)-2-(6-(4-borono-3-fluorobenzyloxy)benzo[d]thiazol-2-yl)-4,5-dihydrothiazole-4-carboxylic acid]",reactivity with H2O2,"[1]; 5 μM in TBS, pH 8.5, 37° C., 100 μM H2O2, 90 minutes, compared to PCL-1",Little reactivity
same,glutathione concentration until which reactivity with SIN-1 was retained,"[2]; 5 μM, 100 μM SIN-1, 90 minutes",1 to 5 mM
same,kH2O2,[3],0.11 (±0.02) M^−1s^−1
same,kONOO−,[4],4.5 (±0.2) × 10^5 M^−1s^−1
same,resistance to hydrolysis,"[11]; 5 μM, bioluminescence at 612 nm",resistant to hydrolysis in comparison to PCL-1
same,selectivity in detecting peroxynitrite vs. hydrogen peroxide,[11]; SIN-1 (2.5 μM) or H2O2 (25 μM),more selective than PCL-1
N[C@@H](CCC(=O)N[C@@H](CS)C(=O)NCC(=O)O)C(=O)O [glutathione],kONOO−,[10],1400 M⁻¹ s⁻¹
